Laboratory results from article PMC9008429, “Identification of a New Cholesterol‐Binding Site within the IFN‐γ Receptor that is Required for Signal Transduction” (Advanced Science, 2022).
Changes are numbered by the printed parent chain.

Assays:
IFN-γR2 [1] = biological target: T1, IFN-γR2 (Homo sapiens, UniProt P38484, L250T/I251T/G254F); assay: in vivo photoaffinity labelling, UV cross-link, anti-GFP IP, autoradiography; type: cell-based; conditions: 3 µM probe, 6 h; full-length GFP fusion, CHO and HAP1 IFN-γR2 KO cells; covalent; labelled compound; with or without IFN-γ
T1 construct: gene IFNGR2; full-length, C-terminal GFP fusion (peGFP-N1); transiently expressed in CHO (with IFN-γR1-RLuc) or HAP1 IFN-γR2 KO cells
T1 sequence (P38484 22-337 L250T/I251T/G254F): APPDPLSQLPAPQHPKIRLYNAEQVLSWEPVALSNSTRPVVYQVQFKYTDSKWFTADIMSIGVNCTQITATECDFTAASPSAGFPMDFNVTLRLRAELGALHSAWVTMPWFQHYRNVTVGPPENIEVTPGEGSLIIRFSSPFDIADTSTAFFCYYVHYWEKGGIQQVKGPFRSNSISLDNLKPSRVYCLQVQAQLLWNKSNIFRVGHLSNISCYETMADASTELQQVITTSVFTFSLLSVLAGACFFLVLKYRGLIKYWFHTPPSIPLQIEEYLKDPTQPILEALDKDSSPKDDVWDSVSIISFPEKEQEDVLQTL

IFN-γR2 [2] = biological target: T2, IFN-γR2 (Homo sapiens, UniProt P38484); assay: competition of photoaffinity labelling in living cells, anti-GFP IP, autoradiography; type: cell-based; conditions: competes with [3H]-photo-chol, dose-dependent; curve only in supplement
T2 construct: gene IFNGR2; full-length, C-terminal GFP fusion (peGFP-N1); transiently expressed in CHO (with IFN-γR1-RLuc) or HAP1 IFN-γR2 KO cells; in the functional receptor two R1 and two R2 chains
T2 sequence (P38484 22-337): T1 sequence (P38484 22-337 L250T/I251T/G254F) with T229L, T230I, F233G

Compound	% reduction of chol binding vs wild type (IFN-γR2 [1]) [%]	competition of photoaffinity labelling in living cells, anti-GFP IP, autoradiogr (IFN-γR2 [2])
[3H]-photo-chol	> 50	
CC(C)CCC[C@@H](C)[C@H]1CC[C@H]2[C@@H]3CC=C4C[C@@H](O)CC[C@]4(C)[C@H]3CC[C@]12C [chol]		cross‐linking between [^3H]‐photo‐chol and IFN‐γR2 was competed in a dose‐dependent manner
